For 13 compounds, TGI and GI50 results are on record in PubChem BioAssay (NCI).

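Exposure lasted 48 hours, with cells grown in 96-well plates and compounds tested at five concentrations. GI50 marks 50% less growth. TGI denotes the concentration required for complete inhibition of growth.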

Among the test systems are SW-620 colon; SF-295 CNS; A549 NSCLC; HCC-2998 colon; NCI-H522 lung; SK-OV-3 ovarian; TK-10 renal; OVCAR-8 ovarian; COLO 205 colon; RPMI-8226 leukemia.
What all share (assay): DTP human tumour cell line panel, 48 h

What is called TGI is the concentration at which net growth stops. As to `COc1cc(C(=O)C/C(CCC(=O)Nc2ccc(Cl)cc2Cl)=N/NC(=O)C(=O)NN)ccc1O`, the concentration for total growth inhibition (TGI) in the experiment with SW-620 colon, in the experiment with SF-295 CNS, in the experiment on A549 NSCLC, in the experiment with HCC-2998 colon, in the experiment with NCI-H522 lung and with SK-OV-3 ovarian was above 100 µM throughout. The TGI in the experiment on TK-10 renal, in the experiment on OVCAR-8 ovarian and in the experiment on COLO 205 colon was above 100 µM each time.

Regarding `OCCNCCOc1ccc(/C(=C(/Cl)c2ccccc2)c2ccccc2)cc1`, the TGI in the experiment on RPMI-8226 leukemia came out at 17.3 µM; in the experiment with SW-620 colon it was 17.3 µM; in the experiment on SF-295 CNS it was 28.5 µM; with A549 NSCLC, 12.8 µM; in the experiment on NCI-H522 lung, 28.8 µM; in the experiment on SK-OV-3 ovarian it was 10.4 µM. In addition, the TGI was 15.9 µM with TK-10 renal, 28 µM in the experiment with OVCAR-8 ovarian and 22.8 µM with COLO 205 colon.

With `Nc1ccc2[nH]cc(CCC(=O)O)c2c1`, the TGI in the experiment with RPMI-8226 leukemia, in the experiment on SW-620 colon, in the experiment with SF-295 CNS, in the experiment with A549 NSCLC, with NCI-H522 lung and in the experiment with SK-OV-3 ovarian was above 100 µM in each case. For the same compound, the total growth inhibition concentration (TGI) with TK-10 renal, in the experiment on OVCAR-8 ovarian and in the experiment on COLO 205 colon was above 100 µM throughout.

In the case of `Oc1ccc(Br)cc1C=Nc1ccc(N=Cc2cc(Br)ccc2O)cc1`, the total growth inhibition concentration (TGI) with RPMI-8226 leukemia, with SW-620 colon, in the experiment on SF-295 CNS, in the experiment with A549 NSCLC, in the experiment on HCC-2998 colon and in the experiment with SK-OV-3 ovarian was above 100 µM each time. Besides, the TGI in the experiment with TK-10 renal and in the experiment with OVCAR-8 ovarian was above 100 µM each time.

The term GI50 denotes the concentration at which growth is held to half of that of the control. For `C[C@H]1CCC/C=C/[C@@H]2C[C@H](O)C[C@H]2[C@H](O)[C@@H](SCC(O)CO)CC(=O)O1` (stereo partly specified), the GI50 with SW-620 colon was 30.9 µM; in the experiment with SF-295 CNS, 43.8 µM; in the experiment on A549 NSCLC it was 34.4 µM; in the experiment on HCC-2998 colon, 14.3 µM; in the experiment on NCI-H522 lung, 95.6 µM; in the experiment on SK-OV-3 ovarian it was 34.7 µM. Moreover, the GI50 in the experiment on TK-10 renal was 48 µM; with OVCAR-8 ovarian, above 100 µM; in the experiment with COLO 205 colon, 17.5 µM. For the same compound, the TGI was above 100 µM in the experiment on SW-620 colon; above 100 µM in the experiment with SF-295 CNS; above 100 µM in the experiment with A549 NSCLC; 42.2 µM in the experiment with HCC-2998 colon; above 100 µM in the experiment with NCI-H522 lung; above 100 µM in the experiment with SK-OV-3 ovarian. Also, the TGI is above 100 µM in the experiment with TK-10 renal, above 100 µM with OVCAR-8 ovarian and 34.4 µM with COLO 205 colon.

As for `N#Cc1ccc(OC(=O)Nc2ccc(Cl)c(Cl)c2)cc1`, the GI50 in the experiment on RPMI-8226 leukemia was 2.43 µM; with SW-620 colon, 3.31 µM; in the experiment with SF-295 CNS, 2.54 µM; with A549 NSCLC, 3.43 µM; with HCC-2998 colon it was 4.79 µM; with SK-OV-3 ovarian, 5.98 µM. Further, the GI50 in the experiment with TK-10 renal was 3.85 µM; with OVCAR-8 ovarian, 3.3 µM; with COLO 205 colon, 3.79 µM. The TGI with RPMI-8226 leukemia is 6.77 µM; with SW-620 colon it was above 100 µM; in the experiment on SF-295 CNS it was 7.64 µM; in the experiment on A549 NSCLC, above 100 µM; in the experiment with HCC-2998 colon, 26.5 µM; in the experiment on SK-OV-3 ovarian, 51.2 µM. The figures for the TGI with TK-10 renal, with OVCAR-8 ovarian and in the experiment with COLO 205 colon were 33.9 µM, 44.8 µM and 11.4 µM, respectively.

Take `CCC(=O)Nc1ccc(N=NN(C)C)cc1`: the TGI was above 100 µM in the experiment on SW-620 colon; above 100 µM in the experiment with A549 NSCLC; 6.64 µM with HCC-2998 colon; above 100 µM with NCI-H522 lung; above 100 µM in the experiment on SK-OV-3 ovarian; above 100 µM in the experiment with OVCAR-8 ovarian. Further, in the experiment on COLO 205 colon, the concentration for total growth inhibition (TGI) is above 100 µM.

`Cc1ccc(S(=O)(=O)NC(=O)NC2=NC(C)(C)N(c3ccc(Cl)c(Cl)c3)C(N)=N2)cc1`: the TGI in the experiment on SW-620 colon, in the experiment with SF-295 CNS, with A549 NSCLC, in the experiment with HCC-2998 colon, in the experiment on NCI-H522 lung and in the experiment with SK-OV-3 ovarian was above 100 µM in each case. Moreover, the TGI with TK-10 renal, with OVCAR-8 ovarian and in the experiment with COLO 205 colon was above 100 µM in each case.

With `CC(=O)OC1C2CCC1C1C2C2(Cl)C(Cl)=C(Cl)C1(Cl)C2(Cl)Cl` (stereo unspecified), the TGI turned out to be 27.4 µM with RPMI-8226 leukemia; 28.4 µM in the experiment on SW-620 colon; 23.7 µM in the experiment on SF-295 CNS; 25.9 µM with A549 NSCLC; 25 µM in the experiment on NCI-H522 lung; 35.3 µM in the experiment on SK-OV-3 ovarian. Besides, the TGI in the experiment with TK-10 renal was 28.8 µM; in the experiment on OVCAR-8 ovarian, 29.6 µM; in the experiment on COLO 205 colon, 28.3 µM.

Consider `Cc1ncc([N+](=O)[O-])n1CCNS(=O)(=O)CCCn1ncnc1[N+](=O)[O-]`, for which the TGI in the experiment on RPMI-8226 leukemia, with SW-620 colon, in the experiment on SF-295 CNS, in the experiment on A549 NSCLC, with NCI-H522 lung and in the experiment on SK-OV-3 ovarian was above 100 µM throughout. For the same compound, the TGI in the experiment on TK-10 renal, with OVCAR-8 ovarian and with COLO 205 colon was above 100 µM throughout.

`O=C(O)CN(c1ccccc1)S(=O)(=O)c1ccc([N+](=O)[O-])cc1`: the TGI with RPMI-8226 leukemia, in the experiment with SW-620 colon, with SF-295 CNS, in the experiment on A549 NSCLC, in the experiment with NCI-H522 lung and in the experiment on SK-OV-3 ovarian was above 100 µM in each case. Besides, the TGI in the experiment with TK-10 renal, with OVCAR-8 ovarian and with COLO 205 colon was above 100 µM throughout.

Regarding `O=c1c2ccccc2nc(-c2ccccc2)n1NC(=S)Nc1ccccc1`, the TGI with RPMI-8226 leukemia, in the experiment with SW-620 colon, in the experiment on SF-295 CNS, with A549 NSCLC, in the experiment with NCI-H522 lung and with SK-OV-3 ovarian was above 100 µM in each case. The TGI with TK-10 renal, in the experiment on OVCAR-8 ovarian and in the experiment on COLO 205 colon was above 100 µM each time.

Turning to `CN(C)CCSc1nccc(-c2cc3ccccc3s2)n1`, the TGI in the experiment with SW-620 colon was 36.7 µM; in the experiment with SF-295 CNS it was 31 µM; in the experiment with A549 NSCLC it was 36.6 µM; in the experiment with HCC-2998 colon, 29.3 µM; in the experiment with NCI-H522 lung, 36.7 µM; in the experiment with SK-OV-3 ovarian it was 94.9 µM. The total growth inhibition concentration (TGI) in the experiment with OVCAR-8 ovarian was determined as 65 µM; in the experiment on COLO 205 colon it was 35.1 µM.
